Test results taken from PubChem BioAssay AID330 (DTP/NCI, 2004).
Where “and” joins values, the source holds several entries; their conditions need not be identical. Equal entries are not always repeated. Toxic doses and inconclusive results are not listed. The calls were made as follows: active = survival T/C of 150% or more; inactive = T/C below 125% in these data.

Tested on: P388 leukemia ip, CD2F1 mice, survival T/C
Test: NCI In Vivo Anticancer Drug Screen. Data for tumor model P388 Leukemia (intraperitoneal) in CD2F1 (CDF1) mice
Details: endpoint: median survival time, higher = longer survival
Procedure, shortened: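 Mice carrying the transplanted tumor received test compound or vehicle. Survival was recorded in each group, and the value is the treated-group measurement divided by that of the vehicle-treated control group.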

[1] = dose: 25.0 mg/kg/injection, schedule: Q01DX005 (ip), vehicle: saline with Tween-80
[2] = dose: 50.0 mg/kg/injection, schedule: Q01DX005 (ip), vehicle: saline with Tween-80
[3] = dose: 50.0 mg/kg/injection, schedule: Q01DX005 (ip), vehicle: Klucel (hydroxypropylcellulose) (HPC)
[4] = dose: 100.0 mg/kg/injection, schedule: Q01DX005 (ip), vehicle: Klucel (hydroxypropylcellulose) (HPC)
[5] = dose: 200.0 mg/kg/injection, schedule: Q01DX005 (ip), vehicle: Klucel (hydroxypropylcellulose) (HPC)
[6] = dose: 60.0 mg/kg/injection, schedule: Q01DX005 (ip), vehicle: saline with Tween-80
[7] = dose: 120.0 mg/kg/injection, schedule: Q01DX005 (ip), vehicle: saline with Tween-80
[8] = dose: 240.0 mg/kg/injection, schedule: Q01DX005 (ip), vehicle: saline with Tween-80
[9] = dose: 100.0 mg/kg/injection, schedule: Q01DX005 (ip), vehicle: saline with Tween-80
[10] = dose: 200.0 mg/kg/injection, schedule: Q01DX005 (ip), vehicle: saline with Tween-80
[11] = dose: 50.0 mg/kg/injection, schedule: Q01DX009 (ip), vehicle: saline with Tween-80
[12] = dose: 100.0 mg/kg/injection, schedule: Q01DX009 (ip), vehicle: saline with Tween-80
[13] = dose: 200.0 mg/kg/injection, schedule: Q01DX009 (ip), vehicle: saline with Tween-80
[14] = dose: 100.0 mg/kg/injection, schedule: Q04DX003 (ip), vehicle: saline with Tween-80
[15] = dose: 6.25 mg/kg/injection, schedule: Q01DX009 (ip), vehicle: Klucel (hydroxypropylcellulose) (HPC)
[16] = dose: 6.25 mg/kg/injection, schedule: Q01DX009 (ip), vehicle: saline with Tween-80
[17] = dose: 12.5 mg/kg/injection, schedule: Q01DX009 (ip), vehicle: Klucel (hydroxypropylcellulose) (HPC)
[18] = dose: 25.0 mg/kg/injection, schedule: Q01DX009 (ip), vehicle: saline with Tween-80
[19] = dose: 60.0 mg/kg/injection, schedule: Q01DX005 (ip), vehicle: Klucel (hydroxypropylcellulose) (HPC)
[20] = dose: 120.0 mg/kg/injection, schedule: Q01DX005 (ip), vehicle: Klucel (hydroxypropylcellulose) (HPC)
[21] = dose: 50.0 mg/kg/injection, schedule: Q01DX005 (ip), vehicle: saline

Measured: T/C

Cc1ccc(NCCN2CCC(C3CCN(CCNc4ccc(C)c5sc6ccccc6c(=O)c45)CC3)CC2)c2c(=O)c3ccccc3sc12
inactive: dose: 6.25 mg/kg/injection, schedule: Q01DX005 (ip), vehicle: saline with Tween-80 90 % of control | dose: 12.5 mg/kg/injection, schedule: Q01DX005 (ip), vehicle: saline with Tween-80 97 % of control | [1] 95 % of control | [2] 94 % of control

CCCCNC1=CC(=O)C(NCCCC)=CC1=O
inactive: [3] 100 % of control | [4] 101 % of control | [5] 98 % of control

CN(CC(N)=O)C(=O)c1cnc2ccccc2c1
inactive: [6] 98 % of control | [7] 101 % of control | [8] 99 % of control

Cc1cc2nnc(-c3cccc([N+](=O)[O-])c3)n2c2nnnn12
inactive: [1] 100 % of control | [2] 102 % of control | [9] 98 % of control | [10] 100 % of control

COc1ccc(CCN2CN=C(Sc3ccc([N+](=O)[O-])cc3Cl)NC2)cc1OC
inactive: [11] 98 % of control | [12] 98 % of control | [13] 93 % of control

Cc1ccc2ccc3ccc(CCl)nc3c2n1
inactive: dose: 3.12 micromoles/kg, schedule: Q01DX005 (ip), vehicle: other 95 % of control | dose: 6.25 micromoles/kg, schedule: Q01DX005 (ip), vehicle: other 99 % of control | dose: 12.5 micromoles/kg, schedule: Q01DX005 (ip), vehicle: other 102 % of control

COc1ccc(CSC(=S)Nc2ccc(C)c(C)c2)cc1
inactive: dose: 50.0 mg/kg/injection, schedule: Q01DX009 (ip), vehicle: suspension in saline 99 % of control | dose: 100.0 mg/kg/injection, schedule: Q01DX009 (ip), vehicle: suspension in saline 100 % of control | dose: 200.0 mg/kg/injection, schedule: Q01DX009 (ip), vehicle: suspension in saline 99 % of control

O=C1CN(C2CC2N2CC(=O)OC(=O)C2)CC(=O)O1 (configuration not stated)
inactive: [14] 97 % of control | dose: 400.0 mg/kg/injection, schedule: Q04DX003 (ip), vehicle: saline with Tween-80 89 % of control

COC1/C=C/OC2(C)Oc3c(C)c(O)c4c(c3C2=O)C(=O)C=C(NC(=O)/C(C)=C\C=C\C(C)C2OC(C)(C)OC(C2C)C(C)C(OC(C)=O)C1C)C4=O (configuration not stated)
inactive: [11] 106 % of control | [12] 113 % of control | [13] 117 % of control

CN=C(NC)c1ccc(NC(=O)Nc2ccc(C)c(NC(=O)Nc3ccc(C(=NC)NC)cc3)c2)cc1
inactive: dose: 1.56 mg/kg/injection, schedule: Q01DX005 (ip), vehicle: saline 96 % of control | dose: 3.12 mg/kg/injection, schedule: Q01DX005 (ip), vehicle: saline 99 % of control | dose: 6.25 mg/kg/injection, schedule: Q01DX005 (ip), vehicle: saline 96 % of control | dose: 6.25 mg/kg/injection, schedule: Q01DX005 (ip), vehicle: suspension in saline 103 % of control

O=C1C(Br)=CC(=NCl)C=C1Br
inactive: dose: 3.13 mg/kg/injection, schedule: Q01DX009 (ip), vehicle: Klucel (hydroxypropylcellulose) (HPC) 101 % of control and 88 % of control | [15] 101 % of control | [16] 93 % of control | [17] 105 % of control and 94 % of control | dose: 12.5 mg/kg/injection, schedule: Q01DX009 (ip), vehicle: saline with Tween-80 88 % of control | [18] 90 % of control

O=C(CN1CCC(O)(c2ccccc2)CC1)N1CCN(/C=C/c2ccccc2)CC1
inactive: [6] 100 % of control | [7] 104 % of control | [8] 91 % of control

CCCOC1(C)Oc2cc3c(cc2C(c2cc(OC)c(OC)c(OC)c2)C1C)OCO3 (configuration not stated)
inactive: [19] 97 % of control | [20] 96 % of control | dose: 240.0 mg/kg/injection, schedule: Q01DX005 (ip), vehicle: Klucel (hydroxypropylcellulose) (HPC) 99 % of control

c1ccc(/C2=N\OCCCOc3ccccc32)cc1
inactive: [3] 88 % of control | [4] 87 % of control | [5] 87 % of control

COc1cc(/C=C2\SC(=O)N(C)C2=O)ccc1O
inactive: [11] 104 % of control | [12] 90 % of control | [13] 87 % of control

C/C(=N\N(C)C)C1=C(O)C(C(C)C)NC1=O (configuration not stated)
inactive: [6] 100 % of control | [7] 105 % of control | [8] 98 % of control

CN=C(NCCSCc1ccc2ccccc2n1)NCc1ccccc1
inactive: dose: 12.5 mg/kg/injection, schedule: Q01DX005 (ip), vehicle: saline 98 % of control | dose: 25.0 mg/kg/injection, schedule: Q01DX005 (ip), vehicle: saline 109 % of control | [21] 101 % of control

CC(=O)Oc1[nH]c(=O)c2cccc3c2c1CCC3
inactive: [18] 102 % of control | [11] 101 % of control and 102 % of control | [12] 108 % of control and 112 % of control

COc1cc2c(c(OC)c1OC)-c1ccc(S(=O)(=O)Cc3ccccc3)c(=O)cc1C(NC(C)=O)CC2 (configuration not stated)
inactive: dose: 0.78 mg/kg/injection, schedule: Q01DX009 (ip), vehicle: Klucel (hydroxypropylcellulose) (HPC) 95 % of control | dose: 1.56 mg/kg/injection, schedule: Q01DX009 (ip), vehicle: Klucel (hydroxypropylcellulose) (HPC) 105 % of control and 106 % of control and 117 % of control | dose: 3.12 mg/kg/injection, schedule: Q01DX009 (ip), vehicle: Klucel (hydroxypropylcellulose) (HPC) 100 % of control and 107 % of control and 115 % of control | [15] 104 % of control and 107 % of control and 96 % of control | [17] 105 % of control and 109 % of control and 113 % of control | dose: 25.0 mg/kg/injection, schedule: Q01DX009 (ip), vehicle: Klucel (hydroxypropylcellulose) (HPC) 98 % of control and 101 % of control and 88 % of control

O=C(NCCCCCCCCNC(=O)C12CC3CC(CC(C3)C1)C2)C12CC3CC(CC(C3)C1)C2
inactive: [2] 86 % of control | [9] 86 % of control | [10] 96 % of control

Clc1cc(Cl)c(OCC#CI)c(Cl)c1Cl
inactive: [11] 86 % of control | [14] 109 % of control | dose: 200.0 mg/kg/injection, schedule: Q04DX003 (ip), vehicle: saline with Tween-80 100 % of control

COC(=O)c1cc2c(s1)C(=O)c1ccccc1-2
inactive: [11] 91 % of control | [12] 103 % of control | [13] 100 % of control

Cc1cccc(N=NC2Sc3nc4ccccc4n3C2=O)c1 (configuration not stated)
inactive: [19] 89 % of control | [20] 91 % of control

CC(=O)NC(CC(C)C)C(=O)NC(CC(C)C)C(=O)NC(C=O)CCCN=C(N)N (configuration not stated)
inactive: dose: 100.0 mg/kg/injection, schedule: Q01DX001 (ip), vehicle: saline 106 % of control | dose: 200.0 mg/kg/injection, schedule: Q01DX001 (ip), vehicle: saline 105 % of control

CC(OP(=O)(O)O)C(N)C(=O)O (configuration not stated)
inactive: [21] 97 % of control | dose: 100.0 mg/kg/injection, schedule: Q01DX005 (ip), vehicle: saline 93 % of control | dose: 200.0 mg/kg/injection, schedule: Q01DX005 (ip), vehicle: saline 98 % of control

Cl[C](Cl)(Cl)[Hg][C](Cl)(Cl)Cl
inactive: dose: 1.56 mg/kg/injection, schedule: Q01DX009 (ip), vehicle: saline with Tween-80 95 % of control | dose: 3.12 mg/kg/injection, schedule: Q01DX009 (ip), vehicle: saline with Tween-80 90 % of control and 96 % of control | [16] 87 % of control

CSc1nc(NC2OCC(OC(C)=O)C(OC(C)=O)C2OC(C)=O)c(N=C(C)C(C)=O)c(=O)n1C (configuration not stated)
inactive: [6] 100 % of control | [7] 87 % of control

Cc1noc2c1CC(=O)c1ccccc1OC2
inactive: [6] 100 % of control | [7] 98 % of control | [8] 94 % of control

NS(=O)(=O)c1cccc(NC(=S)Nc2ccccc2)c1
inactive: dose: 6.25 mg/kg/injection, schedule: Q01DX009 (ip), vehicle: saline 103 % of control (2×) and 108 % of control | dose: 12.5 mg/kg/injection, schedule: Q01DX009 (ip), vehicle: saline 101 % of control and 106 % of control | dose: 25.0 mg/kg/injection, schedule: Q01DX009 (ip), vehicle: saline 99 % of control and 109 % of control and 94 % of control | dose: 100.0 mg/kg/injection, schedule: Q01DX009 (ip), vehicle: saline 99 % of control and 92 % of control | dose: 200.0 mg/kg/injection, schedule: Q01DX009 (ip), vehicle: saline 100 % of control and 110 % of control

COc1cc(/C=C/C(=O)NCCCCN)ccc1O
inactive: [6] 105 % of control | [7] 101 % of control | [8] 95 % of control
